Patent publication US20100041672A1, “USE OF QUINOLINE DERIVATIVES IN THE TREATMENT OF PAIN AND IRRITABLE BOWEL SYNDROME” (GLAXO GROUP LIMITED, priority 2007, published 2010)

Tests used:
[1] = system: Random Hooded rats; test: rat joint pain model of chronic inflammatory pain (intra-articular FCA, hind paw weight bearing); format: in vivo; conditions: for Statistics for hypersensitivity data (weight bearing), significance vs vehicle, Day 17: Day 17 post FCA; for Statistics for hypersensitivity data (weight bearing), significance vs vehicle, Day 15: Day 15 post FCA; for Statistics for hypersensitivity data (weight bearing), significance vs vehicle, Day 14: Day 14 post FCA; for effect on hypersensitivity in the joint pain model of chronic inflammatory pain: once daily oral dosing days 13-17 post intra-articular FCA; for Statistics for hypersensitivity data (weight bearing), significance vs vehicle, Day 13: Day 13 post FCA; for Statistics for hypersensitivity data (weight bearing), significance vs vehicle, Day 16: Day 16 post FCA
Description: Random Hooded rats, 150-180 g, obtained from Charles River UK, were anaesthetised under gaseous anaesthetic and the area surrounding the left and right knee joint shaved and cleaned as for aseptic surgery. Animals were injected with 150 μl of FCA into the left knee joint (intra-articular injection). Animals were immediately allowed to recover from anaesthetic in a warmed/oxygenated environment until being returned to their home cage on paper bedding. No further post-op care was provided.
(§1) Rats were tested prior to surgery and from 18 h post FCA (minimum of once weekly) for weight bearing (g) and joint diameter (mm). Weight bearing is measured by the animal's ability to place body weight across both hind paws on a Dual Channel Weight Averager which was calibrated each day prior to use using a 10 g weight (Rat capacitance tester—Linton Instruments). Hind paw weight bearing data was calculated and expressed as the percentage of the contralateral paw.
All data were expressed as mean±s.e.m.
(§2) Prior to FCA intra-articular injection into the left knee, rats display even weight bearing. By day 1 post-insult weight bearing had shifted such that the majority of the body weight was transmitted through the contralateral limb. By day 10 this effect was maintained and at this point animals were randomised across treatment groups. Once daily dosing with vehicle, SB742457 or celecoxib began on day 13 and continued up to and including day 17.
as §1, with “100” for “10”
as §2, with “SB792988A” for “SB742457”, “17. […] AUC was calculated using Microsoft Excel.” for “17.”

[2] = system: male Sprague Dawley rats; test: rat intra rectal mustard oil model of visceral pain; format: in vivo; conditions: for reduction in behaviours compared to vehicle treated animals: behaviours counted 25 minutes; for statistical significance of reduction in behaviours vs vehicle: orally 60 minutes prior to mustard oil, all doses examined
Description: All behavioural responses consistent with the presence of pain were determined following intra rectal injection of mustard oil in male Sprague Dawley rats. Typical behavioural responses consistent with the presence of pain following intra-colonic mustard oil injection include: arching, abdominal lifting, abdominal tensing, stretching, extending the rear leg (when lying down), raising and lowering the testicles, tip-toeing and writhing.
Male Sprague Dawley rats (130 g-160 g) were briefly sedated with 50% oxygen/50% carbon dioxide and 0.2 ml of 3% mustard oil injected into the colorectum, 1.5 cm from the anus. The anus was plugged with vaseline and animals placed in observational cages to which they had previously been acclimatised for 45 minutes prior to mustard oil injection. The number of visceral pain related behaviours, which consisted primarily of abdominal arching, were counted over a 25 minute period and the animals culled by cervical dislocation.
In separate studies, the effects of alosetron (0.1, 0.3 and 1.0 mg/kg n=10 per group), gabapentin (10, 30 and 100 mg/kg n=10 per group) and amitriptyline (3, 10 and 30 mg/kg n=9-10 per group) or vehicle (saline for alosetron and amitriptyline 10% 1-Methyl-2-pyrolidone in saline for gabapentin n=10 per study) given sub cutaneously 15 minutes prior to injection of 3% mustard oil were examined on pain behaviour. Results in FIGS. 4, 5 and 6 are expressed as mean±sem percentage of behaviours compared to vehicle treated animals and were statistically compared to vehicle treated animals using a one way ANOVA with Dunnett's comparison, p<0.05 considered significant.
The effect of SB742457 (0.03, 0.1, 1.0, 3.0 and 10 mg/kg, n=10 per group for the 0.03, 0.1 and 10 mg/kg groups, and n=20 for the 1.0 and 3.0 mg/kg groups) or vehicle (saline n=20) given orally 60 minutes prior to injection of mustard oil (3% mustard oil, 70% ethanol in saline) were examined on pain behaviour. The total number of visceral pain related behaviours, which consisted primarily of abdominal arching, were counted over a 25 minute period and the animals culled by cervical dislocation. Behaviours were normalised as the percentage of the vehicle group mean and expressed as mean+/−sem. Data was combined from two studies and normalised as the percentage of the vehicle group mean for each individual study and expressed as mean+/−sem for both studies. Percentage of behaviours compared to vehicle treated animals were analysed statistically using a one way ANOVA with Dunnett's comparison, p<0.05 considered significant, FIG. 10.
The effect of SB792988A (0.03, 0.1, 0.3, 1.0, 3.0 and 10 mg/kg, n=9 for 1.0 mg/kg, n=10 per group for the 0.03, 0.1 and 3.0 mg/kg groups, n=20 per group for the 0.3 and 10 mg/kg groups) or vehicle (saline n=20) given orally 60 minutes prior to injection of mustard oil (3% mustard oil, 70% ethanol in saline) were examined on pain behaviour. The total number of visceral pain related behaviours, which consisted primarily of abdominal arching, were counted over a 25 minute period and the animals culled by cervical dislocation. Behaviours were normalised as the percentage of the vehicle group mean and expressed as mean+/−sem. Data was combined from two studies and normalised as the percentage of the vehicle group mean for each individual study and expressed as mean+/−sem for both studies. Percentage of behaviours compared to vehicle treated animals were analysed statistically using a one way ANOVA with Dunnett's comparison, p<0.05 considered significant, FIG. 11.

[3] = 1 mg/kg oral once daily from day 13
[4] = 10 mg/kg oral once daily from day 13
[5] = 0.03 mg/kg orally 60 minutes prior to mustard oil
[6] = 0.1 mg/kg orally 60 minutes prior to mustard oil
[7] = 1.0 mg/kg orally 60 minutes prior to mustard oil
[8] = 3.0 mg/kg orally 60 minutes prior to mustard oil
[9] = 10 mg/kg orally 60 minutes prior to mustard oil
[10] = 0.1 mg/kg oral once daily from day 13, SB792988A study
[11] = 1 mg/kg oral once daily from day 13, SB792988A study
[12] = 3 mg/kg oral once daily from day 13, SB792988A study
[13] = 10 mg/kg oral once daily from day 13, SB792988A study

With `O=S(=O)(c1ccccc1)c1cnc2c(N3CCNCC3)cccc2c1` [SB742457, 3-Phenylsulfonyl-8-piperazin-1-yl-quinoline] the “Statistics for hypersensitivity data (weight bearing), significance vs vehicle, Day 17” value (“Statistics … significance vs vehicle, Day 17” for short) ([1]; 0.1 mg/kg oral once daily from day 13) was “** (** = p < 0.01)”, the “Statistics for hypersensitivity data, significance vs vehicle, AUC” value ([1]; 1 mg/kg oral once daily days 13-17) was “*** (*** = p < 0.001)” and the “Statistics for hypersensitivity data (weight bearing), significance vs vehicle, Day 15” value (“Statistics … significance vs vehicle, Day 15” for short) [1, 3] was “*** (*** = p < 0.001)”. For the same molecule, the “Statistics … significance vs vehicle, Day 17” value [1, 3] was “*** (*** = p < 0.001)”, the “Statistics for hypersensitivity data, significance vs vehicle, AUC” value ([1]; 10 mg/kg oral once daily days 13-17) was “*** (*** = p < 0.001)” and the “Statistics for hypersensitivity data (weight bearing), significance vs vehicle, Day 14” value (from here on “Statistics … significance vs vehicle, Day 14”) [1, 4] was “** (** = p < 0.01)”. The “Statistics … significance vs vehicle, Day 15” value [1, 4] was “*** (*** = p < 0.001)”, the “Statistics … significance vs vehicle, Day 17” value [1, 4] was “*** (*** = p < 0.001)” and the separation from vehicle ([1]; all doses above and including 0.1 mg/kg) was “significant separation from vehicle on at least one day”. The “effect compared with the positive control, celecoxib” value ([1]; highest dose of 10 mg/kg vs 30 mg/kg celecoxib) was “not statistically different”, the “effect on hypersensitivity in the joint pain model of chronic inflammatory pain” value [1] was “reversed hypersensitivity” and the “reduction in behaviours compared to vehicle treated animals” value (“reduction … to vehicle treated animals” for short) [2, 5] was 56%. For the same molecule, the “reduction … to vehicle treated animals” value [2, 6] was 56%, the “reduction … to vehicle treated animals” value [2, 7] was 44% and the “reduction … to vehicle treated animals” value [2, 8] was 50%. The “reduction … to vehicle treated animals” value [2, 9] was 62% and the “statistical significance of reduction in behaviours vs vehicle” value [2] was “statistically significant from vehicle treated animals at all doses examined”.

In the case of `Cl.O=S(=O)(c1cccc(F)c1)c1cnc2c(N3CCNCC3)cccc2c1` [SB792988A, 3-[(3-Fluorophenyl)sulfonyl]-8-(1-piperazinyl)quinoline Hydrochloride], the “Statistics for hypersensitivity data (weight bearing), significance vs vehicle, Day 13” value [1, 10] is reported as “* (* = p < 0.05)”, the “Statistics … significance vs vehicle, Day 17” value [1, 10] is reported as “* (* = p < 0.05)” and the “Statistics … significance vs vehicle, Day 14” value [1, 11] is reported as “* (* = p < 0.05)”. For the same molecule, the “Statistics … significance vs vehicle, Day 17” value [1, 11] was “* (* = p < 0.05)”, the “Statistics for hypersensitivity data (weight bearing), significance vs vehicle, Day 13” value [1, 12] was “** (** = p < 0.01)” and the “Statistics … significance vs vehicle, Day 15” value [1, 12] was “*** (*** = p < 0.001)”. The “Statistics for hypersensitivity data (weight bearing), significance vs vehicle, Day 16” value [1, 12] was “* (* = p < 0.05)”, the “Statistics … significance vs vehicle, Day 17” value [1, 12] was “*** (*** = p < 0.001)” and the “Statistics … significance vs vehicle, Day 14” value [1, 13] was “*** (*** = p < 0.001)”. The “Statistics … significance vs vehicle, Day 15” value [1, 13] was “*** (*** = p < 0.001)”, the “Statistics for hypersensitivity data (weight bearing), significance vs vehicle, Day 16” value [1, 13] was “*** (*** = p < 0.001)” and the “Statistics … significance vs vehicle, Day 17” value [1, 13] was “*** (*** = p < 0.001)”. For the same molecule, the separation from vehicle ([1]; all doses (0.1, 1, 3, 10 mg/kg)) was “significant separation from vehicle on various days”, the “effect compared with the positive control, celecoxib” value ([1]; highest doses of 3 and 10 mg/kg vs 30 mg/kg celecoxib) was “not statistically different” and the “effect on hypersensitivity in the joint pain model of chronic inflammatory pain” value [1] was “reversed hypersensitivity”. For the same molecule, the “reduction … to vehicle treated animals” value [2, 5] was 38%, the “reduction … to vehicle treated animals” value [2, 6] was 40% and the “reduction … to vehicle treated animals” value ([2]; 0.3 mg/kg orally 60 minutes prior to mustard oil) was 42%. For the same molecule, the “reduction … to vehicle treated animals” value [2, 7] was 55%, the “reduction … to vehicle treated animals” value [2, 8] was 65% and the “reduction … to vehicle treated animals” value [2, 9] was 74%. For the same molecule, the “statistical significance of reduction in behaviours vs vehicle” value [2] was “statistically significant from vehicle treated animals at all doses examined”.
